Measurements reported in ChEMBL document CHEMBL3046683, “Anti-inflammatory and analgesic activities of a new cucurbitacin isolated from Citrullus colocynthis seeds” (2013).

Experiments:
Mus musculus [1] = experiment: Analgesic activity in Swiss albino Mus musculus (mouse) assessed as inhibition of acetic acid-induced writhing at 200 mg/kg, sc administered 30 min prior to acetic acid challenge measured for 30 min post acetic acid challenge relative to control; type: functional; conditions: route subcutaneous
Mus musculus [2] = experiment: Analgesic activity in Swiss albino Mus musculus (mouse) assessed as inhibition of phenylbenzoquinone-induced writhing at 200 mg/kg, sc administered 30 min prior to acetic acid challenge measured for 30 min post phenylbenzoquinone challenge relative to control; type: functional; conditions: route subcutaneous
Mus musculus [3] = experiment: Analgesic activity in Swiss albino Mus musculus (mouse) assessed as inhibition of acetic acid-induced writhing at 0.5 mg/kg, sc administered 30 min prior to acetic acid challenge measured for 30 min post acetic acid challenge relative to control; type: functional; conditions: route subcutaneous
Rattus norvegicus [4] = experiment: Anti-inflammatory activity in Wistar Rattus norvegicus (rat) assessed as inhibition of carrageenan-induced paw edema at 0.5 mg/kg, ip administered 30 min prior to carrageenan-challenge measured at 4 hr by plethysmometric analysis relative to control; type: functional; conditions: route intraperitoneal
Rattus norvegicus [5] = experiment: Anti-inflammatory activity in ip dosed Wistar Rattus norvegicus (rat) assessed as inhibition of carrageenan-induced paw edema administered 30 min prior to carrageenan-challenge measured at 1 to 6 hr by plethysmometric analysis relative to control; type: functional, organism-based
Mus musculus [6] = experiment: Analgesic activity in sc dosed Swiss albino Mus musculus (mouse) assessed as inhibition of acetic acid-induced writhing administered 30 min prior to acetic acid challenge measured for 30 min post acetic acid challenge relative to control; type: functional, organism-based
Rattus norvegicus [7] = experiment: Anti-inflammatory activity in Wistar Rattus norvegicus (rat) assessed as inhibition of carrageenan-induced paw edema at 0.5 mg/kg, ip administered 30 min prior to carrageenan-challenge measured at 6 hr by plethysmometric analysis relative to control; type: functional; conditions: route intraperitoneal
Mus musculus [8] = experiment: Analgesic activity in Swiss albino Mus musculus (mouse) assessed as inhibition of acetic acid-induced writhing at 0.05 mg/kg, sc administered 30 min prior to acetic acid challenge measured for 30 min post acetic acid challenge relative to control; type: functional; conditions: route subcutaneous
Rattus norvegicus [9] = experiment: Anti-inflammatory activity in Wistar Rattus norvegicus (rat) assessed as inhibition of carrageenan-induced paw edema at 0.1 mg/kg, ip administered 30 min prior to carrageenan-challenge measured at 2 hr by plethysmometric analysis relative to control; type: functional; conditions: route intraperitoneal
Rattus norvegicus [10] = experiment: Anti-inflammatory activity in Wistar Rattus norvegicus (rat) assessed as inhibition of carrageenan-induced paw edema at 0.1 mg/kg, ip administered 30 min prior to carrageenan-challenge measured at 1 hr by plethysmometric analysis relative to control; type: functional; conditions: route intraperitoneal
Rattus norvegicus [11] = experiment: Anti-inflammatory activity in Wistar Rattus norvegicus (rat) assessed as inhibition of carrageenan-induced paw edema at 0.1 mg/kg, ip administered 30 min prior to carrageenan-challenge measured at 3 hr by plethysmometric analysis relative to control; type: functional; conditions: route intraperitoneal
Mus musculus [12] = experiment: Analgesic activity in sc dosed Swiss albino Mus musculus (mouse) assessed as inhibition of phenylbenzoquinone-induced writhing administered 30 min prior to acetic acid challenge measured for 30 min post phenylbenzoquinone challenge relative to control; type: functional, organism-based
Mus musculus [13] = experiment: Analgesic activity in Swiss albino Mus musculus (mouse) assessed as inhibition of phenylbenzoquinone-induced writhing at 0.1 mg/kg, sc administered 30 min prior to acetic acid challenge measured for 30 min post phenylbenzoquinone challenge relative to control; type: functional; conditions: route subcutaneous
Rattus norvegicus [14] = experiment: Anti-inflammatory activity in Wistar Rattus norvegicus (rat) assessed as inhibition of carrageenan-induced paw edema at 0.1 mg/kg, ip administered 30 min prior to carrageenan-challenge measured at 5 hr by plethysmometric analysis relative to control; type: functional; conditions: route intraperitoneal
Rattus norvegicus [15] = experiment: Anti-inflammatory activity in Wistar Rattus norvegicus (rat) assessed as inhibition of carrageenan-induced paw edema at 0.1 mg/kg, ip administered 30 min prior to carrageenan-challenge measured at 6 hr by plethysmometric analysis relative to control; type: functional; conditions: route intraperitoneal
Rattus norvegicus [16] = experiment: Anti-inflammatory activity in Wistar Rattus norvegicus (rat) assessed as inhibition of carrageenan-induced paw edema at 0.5 mg/kg, ip administered 30 min prior to carrageenan-challenge measured at 2 hr by plethysmometric analysis relative to control; type: functional; conditions: route intraperitoneal
Rattus norvegicus [17] = experiment: Anti-inflammatory activity in Wistar Rattus norvegicus (rat) assessed as inhibition of carrageenan-induced paw edema at 0.5 mg/kg, ip administered 30 min prior to carrageenan-challenge measured at 3 hr by plethysmometric analysis relative to control; type: functional; conditions: route intraperitoneal
Mus musculus [18] = experiment: Analgesic activity in Swiss albino Mus musculus (mouse) assessed as inhibition of phenylbenzoquinone-induced writhing at 0.05 mg/kg, sc administered 30 min prior to acetic acid challenge measured for 30 min post phenylbenzoquinone challenge relative to control; type: functional; conditions: route subcutaneous
Mus musculus [19] = experiment: Analgesic activity in Swiss albino Mus musculus (mouse) assessed as inhibition of phenylbenzoquinone-induced writhing at 0.5 mg/kg, sc administered 30 min prior to acetic acid challenge measured for 30 min post phenylbenzoquinone challenge relative to control; type: functional; conditions: route subcutaneous
Rattus norvegicus [20] = experiment: Anti-inflammatory activity in Wistar Rattus norvegicus (rat) assessed as inhibition of carrageenan-induced paw edema at 0.5 mg/kg, ip administered 30 min prior to carrageenan-challenge measured at 1 hr by plethysmometric analysis relative to control; type: functional; conditions: route intraperitoneal
Rattus norvegicus [21] = experiment: Anti-inflammatory activity in Wistar Rattus norvegicus (rat) assessed as inhibition of carrageenan-induced paw edema at 0.5 mg/kg, ip administered 30 min prior to carrageenan-challenge measured at 5 hr by plethysmometric analysis relative to control; type: functional; conditions: route intraperitoneal
Mus musculus [22] = experiment: Analgesic activity in Swiss albino Mus musculus (mouse) assessed as inhibition of acetic acid-induced writhing at 0.1 mg/kg, sc administered 30 min prior to acetic acid challenge measured for 30 min post acetic acid challenge relative to control; type: functional; conditions: route subcutaneous
Rattus norvegicus [23] = experiment: Anti-inflammatory activity in Wistar Rattus norvegicus (rat) assessed as inhibition of carrageenan-induced paw edema at 0.1 mg/kg, ip administered 30 min prior to carrageenan-challenge measured at 4 hr by plethysmometric analysis relative to control; type: functional; conditions: route intraperitoneal
Rattus norvegicus [24] = experiment: Anti-inflammatory activity in Wistar Rattus norvegicus (rat) assessed as inhibition of carrageenan-induced paw edema at 1 mg/kg, ip administered 30 min prior to carrageenan-challenge measured at 6 hr by plethysmometric analysis relative to control; type: functional; conditions: route intraperitoneal
Rattus norvegicus [25] = experiment: Anti-inflammatory activity in Wistar Rattus norvegicus (rat) assessed as inhibition of carrageenan-induced paw edema at 1 mg/kg, ip administered 30 min prior to carrageenan-challenge measured at 1 hr by plethysmometric analysis relative to control; type: functional; conditions: route intraperitoneal
Rattus norvegicus [26] = experiment: Anti-inflammatory activity in Wistar Rattus norvegicus (rat) assessed as inhibition of carrageenan-induced paw edema at 1 mg/kg, ip administered 30 min prior to carrageenan-challenge measured at 5 hr by plethysmometric analysis relative to control; type: functional; conditions: route intraperitoneal
Rattus norvegicus [27] = experiment: Anti-inflammatory activity in Wistar Rattus norvegicus (rat) assessed as inhibition of carrageenan-induced paw edema at 1 mg/kg, ip administered 30 min prior to carrageenan-challenge measured at 3 hr by plethysmometric analysis relative to control; type: functional; conditions: route intraperitoneal
Rattus norvegicus [28] = experiment: Anti-inflammatory activity in Wistar Rattus norvegicus (rat) assessed as inhibition of carrageenan-induced paw edema at 1 mg/kg, ip administered 30 min prior to carrageenan-challenge measured at 2 hr by plethysmometric analysis relative to control; type: functional; conditions: route intraperitoneal
Rattus norvegicus [29] = experiment: Anti-inflammatory activity in Wistar Rattus norvegicus (rat) assessed as inhibition of carrageenan-induced paw edema at 1 mg/kg, ip administered 30 min prior to carrageenan-challenge measured at 4 hr by plethysmometric analysis relative to control; type: functional; conditions: route intraperitoneal

SMILES: CC(=O)Oc1ccccc1C(=O)O
- inhibition in vivo at 200 mg/kg (Mus musculus [1]): 62%
- inhibition in vivo at 200 mg/kg (Mus musculus [2]): 60%

SMILES: CC(C)(O)/C=C/C(=O)[C@](C)(O)[C@H]1[C@H](O)C[C@@]2(C)[C@@H]3CC=C4[C@@H](C=C(O[C@@H]5O[C@H](CO)[C@@H](O)[C@H](O)[C@H]5O)C(=O)C4(C)C)[C@]3(C)CC[C@]12C
- inhibition in vivo at 0.5 mg/kg (Mus musculus [3]): 92%
- inhibition in vivo at 0.5 mg/kg (Rattus norvegicus [4]): 80%
- inhibition (Rattus norvegicus [5]): Dose-dependent effect
- inhibition (Mus musculus [6]): Dose-dependent effect
- inhibition in vivo at 0.5 mg/kg (Rattus norvegicus [7]): 84%
- inhibition in vivo at 0.05 mg/kg (Mus musculus [8]): 86%
- inhibition in vivo at 0.1 mg/kg (Rattus norvegicus [9]): 13%
- inhibition in vivo at 0.1 mg/kg (Rattus norvegicus [10]): 12%
- inhibition in vivo at 0.1 mg/kg (Rattus norvegicus [11]): 40%
- inhibition (Mus musculus [12]): Dose-dependent effect
- inhibition in vivo at 0.1 mg/kg (Mus musculus [13]): 84%
- inhibition in vivo at 0.1 mg/kg (Rattus norvegicus [14]): 72%
- inhibition in vivo at 0.1 mg/kg (Rattus norvegicus [15]): 73%
- inhibition in vivo at 0.5 mg/kg (Rattus norvegicus [16]): 40%
- inhibition in vivo at 0.5 mg/kg (Rattus norvegicus [17]): 58%
- inhibition in vivo at 0.05 mg/kg (Mus musculus [18]): 80%
- inhibition in vivo at 0.5 mg/kg (Mus musculus [19]): 89%
- inhibition in vivo at 0.5 mg/kg (Rattus norvegicus [20]): 38%
- inhibition in vivo at 0.5 mg/kg (Rattus norvegicus [21]): 84%
- inhibition in vivo at 0.1 mg/kg (Mus musculus [22]): 88%
- inhibition in vivo at 0.1 mg/kg (Rattus norvegicus [23]): 60%

SMILES: C[C@@H]1C[C@H]2[C@@H]3CCC4=CC(=O)C=C[C@]4(C)[C@@]3(F)[C@@H](O)C[C@]2(C)[C@@]1(O)C(=O)CO [DEXAMETHASONE]
- inhibition in vivo at 1 mg/kg (Rattus norvegicus [24]): 89%
- inhibition in vivo at 1 mg/kg (Rattus norvegicus [25]): 29%
- inhibition in vivo at 1 mg/kg (Rattus norvegicus [26]): 87%
- inhibition in vivo at 1 mg/kg (Rattus norvegicus [27]): 45%
- inhibition in vivo at 1 mg/kg (Rattus norvegicus [28]): 33%
- inhibition in vivo at 1 mg/kg (Rattus norvegicus [29]): 71%
